The values below come from patent US20230212123A1, “Pyridine Inhibitors of Glucosylceramide Synthase and Therapeutic Methods Using the Same” (THE REGENTS OF THE UNIVERSITY OF MICHIGAN, priority 2020, published 2023).

SMILES strings stand for the structures.

Series [1] has as its system glucosylceramide (GlcCer) in brain and liver. As to the kind of experiment: Reduction of brain and liver glucosylceramide in CBE mice. Type of series: in vivo. To be noted: 14 days, D409V/null mice with CBE 25 mg/kg/day ip.
Protocol: The in vivo assay measured the reduction in brain and liver glucosylceramide and glucosylsphingosine levels in mice on a D409V background concurrently treated with conduritol B epoxide (CBE), an irreversible inhibitor of GBA (beta-glucocerebrosidase).
Reduction of Brain and Liver Glucosylceramide and Glucosylsphingosine in CBE Mice
The reduction by inhibitors of GCS in brain glucosylceramide and glucosylsphingosine content was determined by the use of mice with Gba 1 mutant alleles, termed D409V/null. These are knock-in mice with a Gba 1 point mutation encoding Valine (V) 409 for the wild type (WT) Aspartate (D) on one missense allele and a null heteroallele [D409V/null (9V/null)]. The D409V/null and WT littermates were of mixed gender and mixed, but matched, genetic backgrounds of C57BL/129Sv/FVB. […] Mice were concurrently treated with GCS inhibitor or vehicle control for 14 days. The mice were sacrificed 2 hours following the last injection and tissues including brain, liver, spleen, kidney and lung were analyzed for glucosylceramide and glucosylsphingosine by mass spectrometry.
Mouse Tissue Lipid Analysis
Lipid extractions of liver, kidney, and brain were performed as previously described (7). Briefly, frozen liver (about 0.5 g), two kidneys (about 0.3 g) and whole brain (about 0.4 g) were individually homogenized in sucrose buffer (250 mM sucrose, pH 7.4, 10 mM HEPES and 1 mM EDTA), at 0.2 g tissue/1 mL of sucrose buffer, with a Tri-R homogenizer. Each 0.8 mL of homogenate was mixed with 2 mL of methanol and 1 mL of chloroform, bath sonicated for 1 min and incubated at room temperature for 1 h. Tissue debris were removed by centrifugation at 2.400 x gravity for 30 min. The pellets were reextracted by mixing with 1 mL of methanol, 0.5 mL of chloroform and 0.4 mL of 0.9% NaCl (chloroform/methanol/0.9% NaCl, 1:2:0.8), incubated at room temperature for 1 h and centrifuged at 2.400 x gravity for another 30 min. Two extracts were combined and mixed with 4.5 mL of chloroform and 1.2 mL of 0.9% NaCl (chloroform/methanol/0.9% NaCl, 2:1:0.8). After centrifugation at 800 x gravity for 5 min, lower layer was washed with 3 mL of methanol and 2.4 mL of 0.9% NaCl. Second washing was carried with 3 mL of methanol, 2 mL of water and 0.4 mL of 0.9% NaCl followed by a 5 min centrifugation at 800 x gravity. The resultant lower phase was collected and dried under a stream of N2 gas.
The analysis of neutral glycosphingolipids from mouse liver, kidney, and brain was processed after alkaline methanolysis. Kidney lipids were incubated with 2 mL of chloroform and 1 ml of 0.21 N NaOH in methanol for 2 h (kidney) or 7.5 h (liver and brain) at RT. […] GlcCer levels were quantified by comparison to known standards.
Series [2] has as its target T1, glucosylceramide synthase (GCS) (Canis lupus familiaris, UniProt A0A8I3MXG6).
T1 construct: endogenous in cells; host or cells: MDCK cell homogenate
T1 sequence (A0A8I3MXG6 1-394): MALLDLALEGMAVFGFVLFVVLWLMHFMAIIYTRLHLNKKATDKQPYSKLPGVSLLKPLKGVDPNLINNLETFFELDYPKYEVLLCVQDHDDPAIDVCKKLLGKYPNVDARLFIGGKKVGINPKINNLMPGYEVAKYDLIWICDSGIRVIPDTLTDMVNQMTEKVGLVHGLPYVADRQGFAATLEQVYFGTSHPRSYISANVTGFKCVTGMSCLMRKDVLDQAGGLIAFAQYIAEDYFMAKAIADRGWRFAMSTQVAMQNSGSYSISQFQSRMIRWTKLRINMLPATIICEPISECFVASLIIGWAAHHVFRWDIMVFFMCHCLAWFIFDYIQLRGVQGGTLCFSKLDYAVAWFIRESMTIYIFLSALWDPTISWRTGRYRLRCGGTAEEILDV
In words: GCS inhibition in MDCK cell homogenates (Lysate IC50). Type of series: biochemical, canine. As to conditions: MDCK cell homogenate. The method, then:
GCS Inhibition in MDCK Cell Homogenates (Lysate IC50, Table 1)
IC50 values for new compounds of the invention were determined as reported in Shayman J. A., Abe A. 2000. Glucosylceramide synthase: assay and properties. Methods Enzymol.311: 42-49.

For another series, the target named is T2, GCS in MDCKII cells (Canis lupus familiaris, UniProt A0A8I3MXG6).
T2 construct: whole cellular lipids of wild type MDCKII cells were extracted; endogenous in cells; host or cells: wild type MDCKII cells
T2 sequence (A0A8I3MXG6 1-394): T1 sequence (A0A8I3MXG6 1-394)
As to the kind of experiment: GCS inhibition in MDCKII cells (glucosylceramide content after 24 h). The format is cell-based, canine. The method, then:
GCS Inhibition in MDCKII Cells (MDCKII IC50, Table 1)
MDCKII cells were routinely maintained in medium consisting of Opti-MEM/F12 (1:1), 5% FBS, 100 U/mL of penicillin, 100 µg/mL streptomycin and 200 mM L-glutamine. MDCKII cells were newly thawed from frozen ampules every two months.
Stock solutions of water-insoluble glycosphingolipid inhibitors (100 mM) were prepared by dissolving each inhibitor into 100% ethanol as previously described (3). The inhibitor-ethanol solutions then were diluted 50X into 2 mM delipidated bovine serum albumin-phosphate buffered saline solution to make water-soluble glycosphingolipid inhibitor-bovine serum albumin complexes. The inhibitor-bovine serum album complexes were sterile-filtered and stored at -20° C. Prior to use, portions of the inhibitor-bovine serum albumin complexes were further diluted with Opti-F12 to make treatment solutions. Equal amounts of bovine serum albumin and ethanol were added into the control cultures. Cells (5 x 10^5) were seeded into 10-cm culture dishes containing 10 ml of Opti-F12 with 5% FBS. After 24 hours, the medium was replaced with fresh serum-free Opti-F12 medium, and cells were exposed to candidate GCS inhibitors at concentrations of 0, 1, 3, 10, 30, 100 and 300 nM for 24 hours.
Following inhibitor treatment, whole cellular lipids of wild type MDCKII cells were extracted as previously described in detail (10). Briefly, cells were washed with ice-cold phosphate buffered saline, fixed by methanol, and collected with rubber scraper. Chloroform was then added to yield a theoretical ratio of chloroform:methanol:water at 1:2:0.8 (v/v/v) to form a mono-phase. Cell debris and proteins were removed by centrifugation at 2200 x g for 30 min. The supernatants were portioned by adding chloroform and 0.9% NaCl. The lower organic phases containing neutral glycosphingolipids lipids were washed with methanol and 0.9% NaCl, and subjected to base- and acid-hydrolysis (10). A portion of purified glycosphingolipids normalized to 100 nmol of total phospholipids was analyzed by high performance thin layer chromatography. The thin layer chromatography separations were processed twice. The plate pretreated with 1% sodium borate was first developed in a solvent system consisting of chloroform/methanol (98/2, v/v). After air drying, the plate was then developed in a solvent system containing chloroform/methanol/water (70/30/4, v/v/v). The levels of glucosylceramide were detected by charring with 8% cupric sulfate in 8% phosphoric acid, and quantified by densitometric scanning using ImageJ, NIH Image. Image data was analyzed, and the IC50 of each inhibitor was calculated using GraphPad Prism (version 5.03).

Series [3] can be described thus: Pharmacokinetics in mice: plasma and brain drug AUC. Type of series: in vivo. As to conditions: over 7 hrs following single IP injection at 10 mg/kg; for Kp / AUC: mouse; for Kp: brain/plasma; for AUC: plasma.
Where [4] appears, read: 24 hours exposure, glucosylceramide level.

Take `CC(C)(C)Oc1ccc([C@@H](O)[C@@H](CN2CCCC2)NC(=O)CC2Cc3ccccc3C2)nc1` [Example 17, N-((1S,2R)-1-(5-(tert-butoxy)pyridin-2-yl)-1-hydroxy-3-(pyrrolidin-1-yl)propan-2-yl)-2-(2,3-dihydro-1H-inden-2-yl)acetamide]: in series [1] (dose 100 µmol/kg), the “CBE mouse GlcCer reduction in brain” value turned out to be 23% and the “CBE mouse GlcCer reduction in liver” value is reported as 34%. Also, half-maximal inhibition in series [2] (IC50) required 11.3 nM. In addition, the midpoint of inhibition against GCS in MDCKII cells (setting [4]), the IC50, lay at 4.6 nM. Further, in series [3], the Kp amounted to 0.34, the AUC amounted to 902 ng·h/mL and the “Brain drug AUC” value came to 308 ng·h/g.
On to `O=C(CC1Cc2ccccc2C1)N[C@H](CN1CCCC1)[C@H](O)c1cccc(Cl)n1` [Example 20, N-((1S,2R)-1-(6-chloropyridin-2-yl)-1-hydroxy-3-(pyrrolidin-1-yl)propan-2-yl)-2-(2,3-dihydro-1H-inden-2-yl)acetamide], for which the IC50 in series [2] came out at 131 nM; against GCS in MDCKII cells (setting [4]), 61 nM.
In series [2], `O=C(CC1Cc2ccccc2C1)N[C@H](CN1CCCC1)[C@H](O)c1ccc(OC(F)(F)F)cn1` [Example 21, 2-(2,3-dihydro-1H-inden-2-yl)-N-((1S,2R)-1-hydroxy-3-(pyrrolidin-1-yl)-1-(5-(trifluoromethoxy)pyridin-2-yl)propan-2-yl)acetamide] had an IC50 of 77 nM. This compound also returned an IC50 against GCS in MDCKII cells (cell marked 'rac': value of the racemate, 24 hours) of 6.5 nM. In series [3], the Kp was 0.35, the AUC came to 1120 ng·h/mL and the “Brain drug AUC” value came to 398 ng·h/g.
Regarding `CC(C)(C)Oc1ccc([C@@H](O)[C@@H](CN2CCCC2)NC(=O)CC2Cc3ccc(F)cc3C2)nc1` (stereo partly drawn) [Example 24, N-((1S,2R)-1-(5-(tert-butoxy)pyridin-2-yl)-1-hydroxy-3-(pyrrolidin-1-yl)propan-2-yl)-2-(5-fluoro-2,3-dihydro-1H-inden-2-yl)acetamide], the figures for the IC50 (in series [2]; on GCS in MDCKII cells (setting [4])) were 568 nM and 23.8 nM, respectively.
As for `O=C(CC1Cc2ccccc2C1)N[C@H](CN1CCCC1)[C@H](O)c1cc(Cl)ccn1` [Example 25, N-((1S,2R)-1-(4-chloropyridin-2-yl)-1-hydroxy-3-(pyrrolidin-1-yl)propan-2-yl)-2-(2,3-dihydro-1H-inden-2-yl)acetamide], in series [1] (dose 72 µmol/kg), the “CBE mouse GlcCer reduction in brain” value amounted to 30% and the “CBE mouse GlcCer reduction in liver” value was 36%. Also, the IC50 in series [2] is 36.4 nM. Besides, in series [3], the Kp worked out at 0.17, the area under the curve (AUC) came out at 1040 ng·h/mL and the “Brain drug AUC” value was 173 ng·h/g.
For `CC(C)(C)Oc1ccc([C@@H](O)[C@@H](CN2CCCC2)NC(=O)CC2Cc3ccccc3C2)cc1` [reference compound], in series [3], the Kp is 0.58, the AUC came to 1070 ng·h/mL and the “Brain drug AUC” value amounted to 619 ng·h/g.
For `O=C(CC1Cc2ccccc2C1)N[C@H](CN1CCCC1)[C@H](O)c1ccc(OC(F)(F)F)cc1` [reference compound], in series [3], the Kp stood at 0.8, the “Brain drug AUC” value amounted to 1046 ng·h/g and the “Plasma drug AUC” value is 1308 ng·h/mL.
Consider `O=C(CC1Cc2ccccc2C1)N[C@H](CN1CCCC1)[C@H](O)c1cccc(Cl)c1` [reference compound], for which, in series [3], the partition ratio (Kp) stood at 0.72 and the “Brain drug AUC” value was 1109 ng·h/g.
